Reference: article PMC11497331 (Glia, 2021)

Test system: primary microglia from wild-type (WT) mice
Type: cell-based

C=C1[C@@H](C)[C@H]2[C@H](Cc3ccccc3)NC(=O)[C@]23[C@H](OC(C)=O)/C=C/[C@@](C)(O)C(=O)[C@@H](C)C/C=C/[C@H]3[C@@H]1O [cytochalasin D, Cytochalasin D]
effect of cytochalasin D on Aβ uptake: reduced
